# Reference: patent US12022832B2, “Compounds and methods for treating nematode infections” (The Governing Council of The University of Toronto, priority 2018, dated 2024)
# Assays:
# C. elegans (adult) = test: C. elegans adult viability; assay type: in vivo, Caenorhabditis elegans; conditions: 72 hours, relative to no-drug controls
# M. incognita = M. incognita Quick Soil Test (tomato); assay type: in vivo, Meloidogyne incognita; conditions: 45 uM, ~2000 J2 per tomato plant, worms in soil 4 days; other compounds
# M. incognita (eggs) = test: M. incognita egg-hatch assay; assay type: in vivo, Meloidogyne incognita; conditions: 45 uM of each compound, ~50 eggs per well; effect threshold not stated
# C. elegans (L1) = test: C. elegans L1 viability, three day protocol; assay type: in vivo, Caenorhabditis elegans; conditions: 72 hours, relative to no-drug controls; compounds 55-11, 55-12-21, 55-12-23
# C. elegans (dauer) = test: C. elegans dauer viability; assay type: in vivo, Caenorhabditis elegans; conditions: 72 hours, relative to no-drug controls
# P. pacificus (L1) = test: P. pacificus L1 viability; assay type: in vivo, Pristionchus pacificus; conditions: 72 hours, relative to no-drug controls
# P. hermaphrodita (L1) = test: P. hermaphrodita L1 viability; assay type: in vivo, Phasmarhabditis hermaphrodita; conditions: 72 hours, relative to no-drug controls
# C. elegans = C. elegans acute motor (rubber-band, convulsion/paralysis) phenotype on solid substrate; assay type: in vivo, Caenorhabditis elegans; conditions: solid substrate, 80 minutes; compounds 55-12-6, 55-12-9, 55-12-12, 55-12-21, 55-12-23
# Text: Worms are scored for the indicated phenotype (see legend); convulsions along the circumferential axis is characterized as the ‘shaker’ phenotype in C. elegans; convulsions along the anterior-posterior axis is characterized as the ‘rubber-band’ phenotype in C. elegans. 18 young-adult animals were scored at each time-point for rubber-band (animals spontaneously contract or do so upon touch on the nose with a platinum wire), hyperactive movement (observing rapid lateral nose movement) and shaker (spontaneous circumferential rotations). […] Data are showing the mean number of animals with each phenotype.
# If a penetrant phenotype is observed, a dose-response analysis is performed; the EC50 is shown.
# Each compound was added to the MYOB substrate before pouring to achieve desired concentration after diffusion through the media. The final concentration of dimethyl sulfoxide (DMSO) in each of the wells was […]. Young adult or fourth-staged larval worms are transferred into each well using a platinum wire pick.
# ˜25 young adult animals of each indicated strain were picked using a platinum wire onto 2% MYOB agar containing the indicated drug condition with 1% DMSO. […] 18 animals were scored per trial; data are the mean response of 2-3 replicates showing the standard error of the mean.
# M. incognita (J2) = test: M. incognita J2 viability in vitro; assay type: in vivo, Meloidogyne incognita; conditions: assay done using 45 uM; 48 or 72 hours; other compounds
compound,measurement,setting,value
"CCCc1ccc(-c2cccc(OC(F)F)c2)nc1 [IIIqq (wact-55-12-23), 2-(3-(difluoromethoxy)phenyl)-5-propylpyridine]",C. elegans (adult viability): lowest concentration tested in which at least 80% of animals were dead,C. elegans (adult),np
same,M. incognita (Quick Soil Test): concentration giving 10-20% killing,M. incognita,45 uM
same,M. incognita (Egg Hatch Rate),M. incognita (eggs),np
same,M. incognita (Hatching Mobility),M. incognita (eggs),np
same,C. elegans (L1 viability): lowest concentration tested in which greater than 20% of animals were dead,C. elegans (L1),60 µM
same,C. elegans (dauer viability): lowest concentration tested in which at least 80% of animals were dead,C. elegans (dauer),np
same,P. pacificus (L1 viability): lowest concentration tested in which at least 80% of animals were dead,P. pacificus (L1),30 µM
same,P. hermaphrodita (L1 viability): lowest concentration tested in which at least 80% of animals were dead,P. hermaphrodita (L1),15 µM
same,C. elegans acute motor phene: concentration at which 10-50% of the animals exhibit convulsion/paralysis phenotypes,C. elegans,60 μM
same,M. incognita (J2 viability in vitro): concentration giving >20% and <80% death,M. incognita (J2),np
